Values after ≈ are worked out from the molar mass of the structure shown.
Legend:
C3H/3T3 cells = test: Microscopic alteration of C3H/3T3 cell culture morphology; assay type: cell-based, murine; details: concentration that results in a microscopic alteration of C3H/3T3 cell culture morphology
HIV-2 = HIV-2 induced cytopathicity in MT-4 cells; assay type: cell-based, human immunodeficiency virus type 2; details: MT-4 cells; concentration inhibiting HIV-induced cytopathicity by 50%
Experimental: (§1) The activity of the compounds against HIV-1 and HIV-2 induced cytopathicity was examined in human lymphocyte MT-4 cells. […] The infected cell cultures were then incubated at 37° C. for 5 days in a humidified CO2-controlled incubator. Then, the cytopathicity of the virus was examined by determination of MT-4 cell viability by trypan blue dye staining.

HIV-1 = HIV-1 induced cytopathicity in MT-4 cells; assay type: cell-based, human immunodeficiency virus type 1; details: MT-4 cells; concentration inhibiting HIV-induced cytopathicity by 50%
Experimental: as §1

[1] = system: Moloney murine sarcoma virus (MSV); test: MSV infection in newborn NMRI mice, intraperitoneal administration; assay type: in vivo; details: for Mean day of tumor initiation / Mean day of animal death: NMRI mice; for antiretroviral activity in vivo (in words): dose of 50 mg/kg i.p.
Experimental: Two gram newborn NMRI mice were injected intramuscularly in the left hind leg with 50 μl of 250-fold diluted stock preparation of Moloney murine sarcoma virus. […] Another group of mice (20 animals) was administered RPMI-1640 medium as placebo. All compounds were solubilized in RPMI-1640 medium. The mice were observed daily for 20 days and the day of tumor initiation and the day of animal death was recorded for each animal. Statistical analyses were performed by calculating the standard deviation.

[2] = system: Moloney murine sarcoma virus (MSV); test: MSV-induced transformation of C3H/3T3 cells; assay type: cell-based; details: concentration inhibiting MSV-induced cell transformation by 50%
Experimental: The cells were seeded in 1-ml-wells of a 48-well microtiter plate and exposed to 80 PFU (plaque forming units) for 60-90 minutes. Then, the virus was removed and culture medium containing appropriate concentrations of the test compounds were added (1 ml per well). At day 6 post infection, MSV-induced transformation of the cell culture was examined microscopically.

MT-4 cells = test: MT-4 cell viability (cytotoxicity); assay type: cell-based, human; details: concentration reducing MT-4 cell viability by 50%
Experimental: The activity of the compounds against HIV-1 and HIV-2 induced cytopathicity was examined in human lymphocyte MT-4 cells. […]. The infected cell cultures were then incubated at 37° C. for 5 days in a humidified CO2-controlled incubator. Then, the cytopathicity of the virus was examined by determination of MT-4 cell viability by trypan blue dye staining. The results are summarized in Table 1 in comparison with the data on the prototype compounds.

retrovirus replication = test: Anti-retrovirus activity in vitro (conclusions on HIV and MSV tests); assay type: cell-based
herpes viruses = details: racemic mixtures, prior art; cited from earlier work

SMILES | MIC (C3H/3T3 cells) | EC50 HIV-2 (HIV-2) | EC50 HIV-1 (HIV-1) | Mean day of tumor initiation ([1]; 20 mg/kg single dose i.p.) | Mean day of tumor initiation ([1]; 50 mg/kg single dose i.p.) | EC50 MSV [2] | CC50 (MT-4 cells) | Mean day of tumor initiation ([1]; 10 mg/kg single dose i.p.) | percentage of MSV-infected mice still alive at day 20 post infection ([1]; 50 mg/kg single dose i.p.) | percentage of MSV-infected mice still alive at day 20 post infection ([1]; 10 mg/kg single dose i.p.) | percentage of MSV-infected mice without tumor at day 20 post infection ([1]; 50 mg/kg single dose i.p.) | other results
Nc1ncnc2c1ncn2C[C@H](CF)OCP(=O)(O)O [(R)-FPMPA, reference compound] | >100 µg/mL | 54 µg/mL (≈ 177 µM) | 83 µg/mL (≈ 272 µM) | 4.3 ± 0.48 days | 4.7 ± 0.67 days | >100 µg/mL | >100 µg/mL | – | – | – | – | –
Nc1nc(N)c2ncn(C[C@H](CF)OCP(=O)(O)O)c2n1 [(R)-FPMPDAP, reference compound] | >100 µg/mL | 1.5 µg/mL (≈ 4.68 µM) | 1.4 µg/mL (≈ 4.37 µM) | – | 7.75 ± 1.3 days | 1.7 µg/mL (≈ 5.31 µM) | >100 µg/mL | 5.6 ± 1.0 days | (10%) | – | – | percentage of MSV-infected mice still alive at day 20 post infection ([1]; 25 mg/kg single dose i.p.): (15%); Mean day of tumor initiation ([1]; 25 mg/kg single dose i.p.): 7.7 ± 1.9 days
C[C@H](Cn1cnc2c(N)ncnc21)OCP(=O)(O)O [(R)-PMPA, 9-(R)-(2-Phosphonomethoxypropyl)adenine] | >100 µg/mL | – | 1.7 µg/mL (≈ 5.92 µM) | 13.5 ± 3.5 days | >20 days | 0.99 µg/mL (≈ 3.45 µM) | >100 µg/mL | 12.9 ± 2.2 days | (100%) | (85%) | (100%) | concentration markedly inhibitory to retrovirus replication (retrovirus replication; in vitro): 1 to 2 µg/mL; Mean day of tumor initiation ([1]; 2 mg/kg single dose i.p.): 5.3 ± 1.1 days; percentage of MSV-infected mice still alive at day 20 post infection ([1]; 5 mg/kg single dose i.p.): (20%); percentage of MSV-infected mice without tumor at day 20 post infection ([1]; 5 mg/kg single dose i.p.): (10%); Mean day of tumor initiation ([1]; 5 mg/kg single dose i.p.): 7.11 ± 1.5 days; percentage of MSV-infected mice without tumor at day 20 post infection ([1]; 10 mg/kg single dose i.p.): (75%); percentage of MSV-infected mice still alive at day 20 post infection ([1]; 20 mg/kg single dose i.p.): (100%); percentage of MSV-infected mice without tumor at day 20 post infection ([1]; 20 mg/kg single dose i.p.): (80%); Mean day of animal death ([1]; 20 mg/kg single dose i.p.): >20 days; protection against MSV-induced tumor development (in words) ([1]; single dose of 50 mg/kg i.p.): full protection
C[C@H](Cn1cnc2c(=O)[nH]c(N)nc21)OCP(=O)(O)O [(R)-PMPG, 9-(R)-(2-Phosphonomethoxypropyl)guanine] | 40 µg/mL (≈ 132 µM) | 1.7 µg/mL (≈ 5.61 µM) | 1.8 µg/mL (≈ 5.94 µM) | – | – | 0.15 µg/mL (≈ 0.495 µM) | >100 µg/mL | – | – | – | – | –
Nc1ncnc2c1ncn2C[C@@H](CF)OCP(=O)(O)O [(S)-FPMPA] | >100 µg/mL | 2.6 µg/mL (≈ 8.52 µM) | 2.7 µg/mL (≈ 8.85 µM) | 11 ± 2.7 days | >20 days | 1.5 µg/mL (≈ 4.91 µM) | >100 µg/mL | 7.7 ± 2.4 days | (100%) | (40%) | (100%) | percentage of MSV-infected mice still alive at day 20 post infection ([1]; 20 mg/kg single dose i.p.): (55%); percentage of MSV-infected mice without tumor at day 20 post infection ([1]; 20 mg/kg single dose i.p.): (31%); antiretroviral activity in vivo (in words) [1]: no marked antiretroviral activity in vivo
Nc1nc(N)c2ncn(C[C@@H](CF)OCP(=O)(O)O)c2n1 [(S)-FPMPDAP] | >100 µg/mL | 3.3 µg/mL (≈ 10.3 µM) | 4.8 µg/mL (≈ 15 µM) | – | 11.0 ± 2.1 days | 1.7 µg/mL (≈ 5.31 µM) | >100 µg/mL | 8.5 ± 2.6 days | (67%) | (33%) | (17%) | Mean day of tumor initiation ([1]; 25 mg/kg single dose i.p.): 8.3 ± 1.8 days
C[C@@H](Cn1cnc2c(N)ncnc21)OCP(=O)(O)O [(S)-PMPA, 9-(S)-(2-Phosphonomethoxypropyl)adenine] | >100 µg/mL | 63 µg/mL (≈ 219 µM) | 78 µg/mL (≈ 272 µM) | 4.5 ± 0.71 days | 5.8 ± 0.63 days | 120 µg/mL (≈ 418 µM) | >100 µg/mL | 4.7 ± 0.95 days | – | – | – | antiretroviral activity in vitro (in words) (retrovirus replication): devoid of marked antiretroviral activity; antiretroviral activity in vivo (in words) [1]: no marked antiretroviral activity in vivo
C[C@@H](Cn1cnc2c(N)nc(N)nc21)OCP(=O)(O)O [(S)-PMPDAP, 9-(S)-(2-Phosphonomethoxypropyl)-2.6-Diaminopurine] | >100 µg/mL | 4.0 µg/mL (≈ 13.2 µM) | 2.0 µg/mL (≈ 6.62 µM) | – | – | 2.9 µg/mL (≈ 9.6 µM) | >100 µg/mL | – | – | – | – | –
C[C@@H](Cn1cnc2c(=O)[nH]c(N)nc21)OCP(=O)(O)O [(S)-PMPG, 9-(S)-(2-Phosphonomethoxypropyl)guanine] | 8 µg/mL (≈ 26.4 µM) | 1.3 µg/mL (≈ 4.29 µM) | 1.2 µg/mL (≈ 3.96 µM) | – | – | 0.95 µg/mL (≈ 3.13 µM) | 45 µg/mL (≈ 148 µM) | – | – | – | – | –
Nc1ncnc2c1ncn2CCOCP(=O)(O)O [PMEA] | >100 µg/mL | – | – | 10.6 ± 2.0 days | 9.0 days | – | 67 µg/mL (≈ 245 µM) | 9.8 ± 1.9 days | (90%) | (43%) | (90%) | percentage of MSV-infected mice without tumor at day 20 post infection ([1]; 10 mg/kg single dose i.p.): (24%); Mean day of animal death ([1]; 10 mg/kg single dose i.p.): 14.2 ± 2.5 days; percentage of MSV-infected mice still alive at day 20 post infection ([1]; 20 mg/kg single dose i.p.): (66%); percentage of MSV-infected mice without tumor at day 20 post infection ([1]; 20 mg/kg single dose i.p.): (44%); Mean day of animal death ([1]; 20 mg/kg single dose i.p.): 14.7 ± 1.8 days; Mean day of animal death ([1]; 50 mg/kg single dose i.p.): 16.0 days
C[C@H](Cn1cnc2c(N)ncnc21)OCP(=O)(O)O [PMPA] | – | – | – | – | – | – | – | – | – | – | – | antiherpetic effect (in words) (herpes viruses): devoid of any appreciable antiherpetic effect
CC(Cn1cnc2c(=O)[nH]c(N)nc21)OCP(=O)(O)O (stereo not shown) [PMPG] | – | – | – | – | – | – | – | – | – | – | – | antiherpetic effect (in words) (herpes viruses): appeared due to its substantial cytotoxicity
